From the supplement of paper PMC10307832

Experiments:
Assay in all cases: relative viability (nuclei count vs DMSO), 5 days (fraction); higher = more cells survive
NCI-H520 = tested on: NCI-H520
Method in brief: (§1)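 The day after seeding in 1536-well plates, lung cancer cell lines were treated by pin tool with a single drug, or with a fixed anchor-drug dose together with five library-drug doses (not always all listed) in √10 steps. After 5 days, a combined fix-and-stain solution (final 0.05% Triton X-100, 1% formaldehyde, 1 ug/ml Hoechst) was added. Nuclei counted on 4× images gave relative viability as treated counts over vehicle counts, reported as the median of duplicate plates.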

HOP-62 = tested on: HOP-62
Method in brief: as §1

NCI-H23 = tested on: NCI-H23
Method in brief: as §1

NCI-H441 = tested on: NCI-H441
Method in brief: as §1

LCLC-103H = tested on: LCLC-103H
Method in brief: as §1

NCI-H2023 = tested on: NCI-H2023
Method in brief: as §1

NCI-H2347 = tested on: NCI-H2347
Method in brief: as §1

EMC-BAC-2 = tested on: EMC-BAC-2
Method in brief: as §1

NCI-H647 = tested on: NCI-H647
Method in brief: as §1

EPLC-272H = tested on: EPLC-272H
Method in brief: as §1

NCI-H2126 = tested on: NCI-H2126
Method in brief: as §1

NCI-H650 = tested on: NCI-H650
Method in brief: as §1

NCI-H1437 = tested on: NCI-H1437
Method in brief: as §1

NCI-H2405 = tested on: NCI-H2405
Method in brief: as §1

NCI-H2009 = tested on: NCI-H2009
Method in brief: as §1

ChaGo-K-1 = tested on: ChaGo-K-1
Method in brief: as §1

HCC-44 = tested on: HCC-44
Method in brief: as §1

NCI-H460 = tested on: NCI-H460
Method in brief: as §1

LOU-NH91 = tested on: LOU-NH91
Method in brief: as §1

SW 1573 = tested on: SW 1573
Method in brief: as §1

NCI-H727 = tested on: NCI-H727
Method in brief: as §1

`O=c1[nH]c2ccccc2n1C1CCN(CCCC(c2ccc(F)cc2)c2ccc(F)cc2)CC1` [Pimozide] + CC(C)C[C@H](NC(=O)[C@H](Cc1ccccc1)NC(=O)c1cnccn1)B(O)O [Bortezomib] (partner 0.002 µM) was tested, and the relative viability (NCI-H520; first compound 0.08 µM) was 0.386, the relative viability (NCI-H520; first compound 0.253 µM) was 0.538 and the relative viability (NCI-H520; first compound 0.8 µM) was 0.556. It also gave a relative viability (NCI-H520; first compound 2.53 µM) of 0.437, a relative viability (NCI-H520; first compound 8 µM) of 0.649 and a relative viability (HOP-62; first compound 0.08 µM) of 0.935. The relative viability (HOP-62; first compound 0.253 µM) was 0.889, the relative viability (HOP-62; first compound 2.53 µM) was 0.749 and the relative viability (HOP-62; first compound 8 µM) was 1.02. It also gave a relative viability (NCI-H23; first compound 0.08 µM) of 0.883, a relative viability (NCI-H23; first compound 0.253 µM) of 1.04 and a relative viability (NCI-H23; first compound 0.8 µM) of 1.02. It also gave a relative viability (NCI-H23; first compound 2.53 µM) of 0.757, a relative viability (NCI-H23; first compound 8 µM) of 0.908 and a relative viability (NCI-H441; first compound 0.08 µM) of 0.692. For the same compound, the relative viability (NCI-H441; first compound 0.253 µM) was 0.366, the relative viability (NCI-H441; first compound 0.8 µM) was 0.325 and the relative viability (NCI-H441; first compound 2.53 µM) was 0.451. It also gave a relative viability (NCI-H441; first compound 8 µM) of 0.336, a relative viability (LCLC-103H; first compound 0.08 µM) of 1 and a relative viability (LCLC-103H; first compound 0.253 µM) of 1.07. It also gave a relative viability (LCLC-103H; first compound 0.8 µM) of 0.877, a relative viability (LCLC-103H; first compound 2.53 µM) of 1.08 and a relative viability (LCLC-103H; first compound 8 µM) of 1.12. It also gave a relative viability (NCI-H2023; first compound 0.08 µM) of 0.973, a relative viability (NCI-H2023; first compound 0.253 µM) of 0.996 and a relative viability (NCI-H2023; first compound 0.8 µM) of 0.74. For the same compound, the relative viability (NCI-H2023; first compound 2.53 µM) was 0.884, the relative viability (NCI-H2023; first compound 8 µM) was 0.581 and the relative viability (NCI-H2347; first compound 0.08 µM) was 1. The relative viability (NCI-H2347; first compound 0.253 µM) was 0.858, the relative viability (NCI-H2347; first compound 0.8 µM) was 0.748 and the relative viability (NCI-H2347; first compound 2.53 µM) was 0.955. For the same compound, the relative viability (NCI-H2347; first compound 8 µM) was 0.883, the relative viability (EMC-BAC-2; first compound 0.08 µM) was 0.992 and the relative viability (EMC-BAC-2; first compound 0.253 µM) was 1.03. For the same compound, the relative viability (EMC-BAC-2; first compound 0.8 µM) was 0.972, the relative viability (EMC-BAC-2; first compound 2.53 µM) was 1.04 and the relative viability (EMC-BAC-2; first compound 8 µM) was 1.05. It also gave a relative viability (NCI-H647; first compound 0.08 µM) of 1.08, a relative viability (NCI-H647; first compound 0.253 µM) of 0.855 and a relative viability (NCI-H647; first compound 0.8 µM) of 0.851. The relative viability (NCI-H647; first compound 2.53 µM) was 0.944, the relative viability (NCI-H647; first compound 8 µM) was 0.529 and the relative viability (EPLC-272H; first compound 0.08 µM) was 0.974. It also gave a relative viability (EPLC-272H; first compound 0.253 µM) of 1.04, a relative viability (EPLC-272H; first compound 0.8 µM) of 0.826 and a relative viability (EPLC-272H; first compound 2.53 µM) of 0.828. It also gave a relative viability (EPLC-272H; first compound 8 µM) of 0.91, a relative viability (NCI-H2126; first compound 0.08 µM) of 1.14 and a relative viability (NCI-H2126; first compound 0.253 µM) of 1.1. It also gave a relative viability (NCI-H2126; first compound 0.8 µM) of 1.1, a relative viability (NCI-H2126; first compound 2.53 µM) of 1.11 and a relative viability (NCI-H2126; first compound 8 µM) of 1.05. It also gave a relative viability (NCI-H650; first compound 0.08 µM) of 0.797, a relative viability (NCI-H650; first compound 0.253 µM) of 0.787 and a relative viability (NCI-H650; first compound 0.8 µM) of 0.704. The relative viability (NCI-H650; first compound 2.53 µM) was 0.718, the relative viability (NCI-H650; first compound 8 µM) was 0.747 and the relative viability (NCI-H1437; first compound 0.08 µM) was 0.492. For the same compound, the relative viability (NCI-H1437; first compound 0.253 µM) was 0.45, the relative viability (NCI-H1437; first compound 0.8 µM) was 0.423 and the relative viability (NCI-H1437; first compound 2.53 µM) was 0.507. For the same compound, the relative viability (NCI-H1437; first compound 8 µM) was 0.403, the relative viability (NCI-H2405; first compound 0.08 µM) was 0.761 and the relative viability (NCI-H2405; first compound 0.253 µM) was 0.979. For the same compound, the relative viability (NCI-H2405; first compound 0.8 µM) was 0.979, the relative viability (NCI-H2405; first compound 2.53 µM) was 0.896 and the relative viability (NCI-H2405; first compound 8 µM) was 0.984. The relative viability (NCI-H2009; first compound 0.08 µM) was 0.999, the relative viability (NCI-H2009; first compound 0.253 µM) was 0.999 and the relative viability (NCI-H2009; first compound 0.8 µM) was 0.879. The relative viability (NCI-H2009; first compound 2.53 µM) was 0.888, the relative viability (NCI-H2009; first compound 8 µM) was 0.769 and the relative viability (ChaGo-K-1; first compound 0.08 µM) was 1.01. It also gave a relative viability (ChaGo-K-1; first compound 0.253 µM) of 0.883, a relative viability (ChaGo-K-1; first compound 0.8 µM) of 0.977 and a relative viability (ChaGo-K-1; first compound 2.53 µM) of 1.01. It also gave a relative viability (ChaGo-K-1; first compound 8 µM) of 0.872, a relative viability (HCC-44; first compound 0.08 µM) of 0.874 and a relative viability (HCC-44; first compound 0.253 µM) of 0.788. For the same compound, the relative viability (HCC-44; first compound 0.8 µM) was 0.856, the relative viability (HCC-44; first compound 2.53 µM) was 0.975 and the relative viability (HCC-44; first compound 8 µM) was 0.877. For the same compound, the relative viability (NCI-H460; first compound 0.08 µM) was 1.09, the relative viability (NCI-H460; first compound 0.253 µM) was 0.933 and the relative viability (NCI-H460; first compound 0.8 µM) was 0.992. For the same compound, the relative viability (NCI-H460; first compound 2.53 µM) was 0.993, the relative viability (NCI-H460; first compound 8 µM) was 1.04 and the relative viability (LOU-NH91; first compound 0.08 µM) was 0.498. The relative viability (LOU-NH91; first compound 0.253 µM) was 0.528, the relative viability (LOU-NH91; first compound 0.8 µM) was 0.529 and the relative viability (LOU-NH91; first compound 2.53 µM) was 0.504. The relative viability (LOU-NH91; first compound 8 µM) was 0.479, the relative viability (SW 1573; first compound 0.08 µM) was 1.09 and the relative viability (SW 1573; first compound 0.253 µM) was 1.02. For the same compound, the relative viability (SW 1573; first compound 0.8 µM) was 0.898, the relative viability (SW 1573; first compound 2.53 µM) was 0.894 and the relative viability (SW 1573; first compound 8 µM) was 0.963. The relative viability (NCI-H727; first compound 0.08 µM) was 0.729, the relative viability (NCI-H727; first compound 0.253 µM) was 0.788 and the relative viability (NCI-H727; first compound 0.8 µM) was 0.884. It also gave a relative viability (NCI-H727; first compound 2.53 µM) of 0.733 and a relative viability (NCI-H727; first compound 8 µM) of 0.868.
